Among the data in a melting point compilation (Tetko et al.; mined from patent text by program, amines drawn as free bases though some values may be those of a salt) are melting point values, retold here.

Take `COc1cc2cc(C)sc2c(Cl)c1Cl`: the melting point lay within 113 to 114 °C. For `Cc1cc(C)cc(NCc2ccc3nc(NC4CCN(CCS(N)(=O)=O)CC4)n(Cc4nc(C)ccc4O)c3c2)c1` the value was 142 °C; for `O=C(c1ccccc1)c1cc(Cl)ccc1-n1ccnc1`, 106 to 108 °C. For `CCc1cc(C=C(C#N)C#N)ccc1N=C1SCC2(CCCC2)N1C1CCCC1` the value was 135 to 136 °C.

Consider `O=C(CCc1ccc(OCCS(=O)(=O)CCOC(c2ccc(Cl)cc2)c2ccc(Cl)cc2)cc1)C(F)(F)F`, for which the melting point is 98 to 100 °C.

For `COC(=O)c1nn(-c2ccc(Cl)cc2Cl)c(-c2ccc(Cl)cc2)c1C`, the melting point turned out to be 133 °C.

In turn, `O=C(N[C@@H]1C(=O)N[C@@H]1CO)OCc1ccccc1` registered a melting point of 98 to 100 °C. For `CCn1cc(C(=O)O)c(=O)cc1-c1cccc(N)c1` the value was 145 to 146 °C; for `COC(=O)Cc1ccc(CNC(=O)C2Cc3ccccc3N2S(=O)(=O)c2ccc(-c3ccc(F)cc3C)cc2)cc1` (configuration not stated), 71 to 75 °C. For `CNC1COc2ccc3[nH]c(C(F)(F)F)nc3c2O1` (configuration not stated) the value was 199 to 201 °C. For `CCCCCCCCCCC(=O)NCCCCCCCCCCCC(=O)O` the value was 102 to 104 °C; for `COc1ccc(COC(=O)n2c(S(=O)Cc3ccc(C)cn3)nc3cscc32)cc1` (configuration not stated), 119 to 120 °C; for `N#Cc1c(N2CCN(C(=O)c3ccco3)CC2)c2cc(F)ccc2n(Cc2ccccc2)c1=O`, 209 °C. `COc1c(C)cnc(CS(=O)c2nc3ncccc3[nH]2)c1C` (configuration not stated) displayed a melting point of 169 to 170 °C. `CCOC(=O)/C=C/c1ccc(OCc2nc(-c3ccccc3)oc2C)nc1` had a melting point of 109 to 110 °C.

For `CC1(C)CC(Oc2ccc(O)nn2)c2cc(C#N)ccc2O1` (configuration not stated), the melting point fell in the range of 221 to 224 °C.

As to `CC(C)(C)c1cc(-c2n[nH]c(=S)[nH]2)cc(C(C)(C)C)c1O`, the melting point stood at 271 °C.

In the case of `CCOc1nc2cccc(C(=O)O)c2n1Cc1ccc(-c2ccccc2-c2nc(=O)o[nH]2)cc1`, the melting point lay within 156 to 157 °C. For `C[C@]12CC[C@]3(C)C(O)CC[C@H]3[C@@H]1CCC1=C2CC=C(O)C1` (some centres not stated) the value was 86 to 90 °C. For `CCCCc1ccc(N2CCN(C(=O)Nc3nc(C)c(C)nc3OC)CC2)cc1` the value was 121 to 123 °C; for `CC(=O)Nc1nc(/C=C/C(=O)N2CCN(C(=O)c3cc(C(F)(F)F)cc(C(F)(F)F)c3)[C@H](Cc3ccc(C)c(C)c3)C2)cs1`, 145 to 149 °C. On to `Cc1ccc(-c2ccc3c(c2)OCO3)cc1`, for which the melting point lay in the range of 57 to 60 °C. For `C=C(CNNC(=O)OC(C)(C)C)c1ccccc1` the value was 153 to 154 °C. For `Cc1nc(N)c2nc(C)n(CCOCC#Cc3ccccc3)c2c1C` the value was 187 to 188 °C. For `CCCCCCc1sc(C(=O)O)c2c1-c1c(cnn1C)CC2` the value was 242 to 243 °C; for `Nc1ncnc2c1cnn2C1CCC(OCC(F)c2ccccc2)C(F)C1` (configuration not stated), 209 to 211 °C; for `CC(=C1SC(=O)NC1=O)c1ccc(OCCOc2c(-c3ccc(F)cc3)n(C)c3ccccc3c2=O)c(F)c1`, 220 to 222 °C. `Cn1ncc2c1-c1c(Sc3ccccn3)sc(C(=O)O)c1CC2` displayed a melting point of 231 to 232 °C. For `Nc1c(F)c(N2C[C@H](CF)[C@H](N)C2)c(F)c2c1c(=O)c(C(=O)O)cn2C1CC1` (relative stereo) the value was 248 to 249 °C; for `CC(=O)c1nc(-c2ccc(C)nc2Cl)[nH]c1C`, 156 to 158 °C; for `COc1ccc(Oc2ccc(C(C)=C3SCCCS3)cc2)cc1OC`, 73.5 to 75.5 °C. For `COc1ccc(N2CCN(c3cc4c(cc3-c3ccc(C)cc3)OC(C)(C)C4)CC2)cc1` the value was 187 to 190 °C. Take `COc1ccc(S(=O)(=O)N2CCc3[nH]c4c(cnc5cc(Cl)ccc54)c3C2)cc1`: the melting point was over 250 °C. For `O=[N+]([O-])c1ccc(Cl)cc1NC1CCCC1` the value was 75 °C. Compound `CC(=O)OCSc1c(F)cc(-c2c(-c3ccccc3)noc2C)cc1F` yielded a melting point of 130 °C. Regarding `CCCCCc1ccc(OC(=O)N2CCC(OC(=O)NCCCCCCOC(=O)N3CCC4(CCCC4)CC3)CC2)cc1`, the melting point lay in the range of 100 to 102 °C. For `CCCn1nc(-c2ccc(OC(=O)CC(C)(C)C)c(F)c2)c2cccc(Cl)c21` the value was 58 to 59 °C; for `CCOC(=O)C1=C(COCCNC(=O)N2CCNC2=O)NC(C)=C(C(=O)OC)C1c1ccccc1Cl` (configuration not stated), 145 °C.

For the compound `CCN(CC)CCC1CCc2cc(O)ccc2C1` (single isomer, unassigned; (+)), the melting point fell in the range of 102 to 104 °C. For `CCOCn1cc(C(C)=O)c2c(OC)cc(Br)nc21` the value was 114 to 116 °C; for `CC(C)(C)OC(=O)N1CCn2c(Br)c(-c3cccc(F)c3)c(C(N)=O)c2C1`, 168 to 174 °C. For `NCCOc1c(Cl)ccc2c1c1cccc3c1n2C(c1ccccc1)CO3` (configuration not stated) the value was 127 to 128 °C. In turn, `O=Cc1ccc(/C=C/c2ccncc2)nc1` registered a melting point of 131 to 136 °C. For `CC1CC(C)CN(CN2C(=O)CN(CC(C)N3CC(=O)N(CN4CC(C)CC(C)C4)C(=O)C3)CC2=O)C1` (configuration not stated) the value was 142 to 144 °C; for `COc1ccc(S(=O)(=O)Nc2ccc(N(C)C)nc2Nc2ccccc2)cc1`, 152 to 153 °C; for `CCCCCCCCCCCCCCCCCNC(=O)OCCSCCOC(=O)N(Cc1ccccn1)C(C)=O`, 62 to 63 °C. Turning to `CSc1ccc(-c2cnn(-c3ccc(F)cc3)c(=O)c2OC(C)C)cc1`, the melting point was in the range of 135 to 137 °C.

Regarding `N#Cc1ccc(N2C(=O)NC3(CCS(=O)CC3)C2=O)cc1C(F)(F)F` (configuration not stated), the melting point was in the range of 260 to 277 °C. `CC(C)=NOCc1nc2c(N)nc3ccccc3c2n1CCNC(=O)NC(C)C` showed a melting point of 230 to 231 °C. For `O=c1cc(-c2ccc(O)cc2)oc2ccc(CO)cc12` the value was 246 to 247 °C; for `CC(C)(C)OC(=O)c1cc(Br)cc([N+](=O)[O-])c1`, 77 to 78 °C. For `COC(=O)c1ccc2c(c1)OC(C)(C)C(=O)N2C(C)C` the value was 62 to 63 °C; for `NC(=O)[C@@H]1[C@H](Nc2c(Br)cnc3[nH]c(-c4ccoc4)nc23)[C@H]2C=C[C@@H]1C2`, 231 to 232 °C; for `Fc1cccc2c(NCCc3ccc4ccccc4c3)ccnc12`, 173 to 174 °C. `O=C(Nc1ccc(Br)cc1CO)C(F)(F)F`: the melting point was 97 to 103 °C. For `CCOC(=O)c1c(-c2ccc(N3CCN(C)CC3)cc2)n(C)n(-c2ccc(C#N)cc2)c1=O` the value was 278 to 280 °C. For `O=c1[nH]c(COCc2ccccc2)nc2nccnc12` the value was 157 to 159 °C; for `CNc1cc(OCC(O)CN2C(=O)CCC2=O)ccc1[N+](=O)[O-]` (configuration not stated), 152 °C; for `CN(CC(O)(CO)c1ccccc1)S(=O)(=O)c1ccc(Cl)cc1` (configuration not stated), 122 to 123 °C. As for `Cc1nn(C)c(C)c1-c1cncc(OC2SCC(O)C(O)C2O)c1` (configuration not stated), the melting point came out at 174 °C. For `CC(C)(O)CC1CN=C(c2cc3cc(Oc4ccc(S(C)(=O)=O)cn4)cc(OC4CCOCC4)c3[nH]2)S1` (configuration not stated) the value was 129 to 130 °C; for `Cc1ccc(CCOc2ccc(N)cc2)nc1`, 74 to 75 °C; for `CCC(=O)Oc1ccc(S(=O)(=O)N2c3ccccc3-c3ccc(F)cc3C2CC)cc1` (configuration not stated), 111 to 112 °C. `CON=Cc1cc(NC(=O)N2CCOCN2)c(F)cc1Cl` showed a melting point of 169 to 171 °C. For `CCOC(=O)Cc1c(-c2ccccc2)c2cc3c(cc2oc1=O)C(=O)OC3` the value was 222 to 223 °C; for `Cc1oc(-c2ccccc2)nc1C(=O)CBr`, 88 to 89 °C. For `CCOC(=O)C(Cl)=Cc1cc(-n2c(Cl)nc(C(F)(F)F)cc2=O)ccc1Cl` the value was 114 to 115 °C; for `O=C1C(=O)c2ccccc2C2=C1SCC1(CCN(C(=O)CSc3ccccc3)CC1)O2`, 155 to 157 °C. Compound `COc1cc(CCC2(C)OCc3c2cnc(C)c3O)cc(OC)c1OC` (configuration not stated) displayed a melting point of 219 °C. For `Cc1cncc(C(=O)OC(C)c2nc3c(c(=O)n(C)c(=O)n3C)n2C)c1` (configuration not stated) the value was 110 °C; for `CC(C)(C)OC(=O)N1CCN(c2ccc(NC(=O)Nc3cc(Cl)ccc3N)cc2)CC1`, 187 to 189 °C; for `CCCC(=O)Nc1c2c(nc3ccccc13)CCCC2`, 202 to 204 °C. In turn, `CC(=O)c1ccc(NS(C)(=O)=O)c(Oc2ccccc2)c1` had a melting point of 113 to 114 °C. For `O=C(Nc1ccccn1)C(CC1CCCC1)c1ccc(S(=O)(=O)C(F)(F)F)cc1` (configuration not stated) the value was 58 to 62 °C; for `CC(C)(C)NC(=O)N1CCn2c(Cl)c(-c3ccccc3)c(C(N)=O)c2C1`, 192 to 195 °C; for `CC(C)(O)CCCCCc1ccc(CCc2ccc(O)c(CO)c2)cc1`, 110 to 111 °C. For `CC(C)OC(=Cn1cnnn1)c1ccc(Cl)cc1Cl` the value was 82 °C; for `O=C(O)c1cccc(CC2COc3ccc(OCc4ccccc4)cc3C2)c1` (single isomer, unassigned; (+)), 128 to 130 °C; for `COc1cc(C#Cc2cc(OC)c(OC(C)C)cc2OC(=O)CI)ccc1OC(C)C`, 127 to 128 °C.

`COc1cccc(CNC(=O)c2nc3cccc(OCCO)c3c(=O)[nH]2)c1` yielded a melting point of 173 to 174 °C. For `CC#CC(O)(C#CC)c1cc(-c2cccc(Cl)c2)ccc1N` the value was 112 to 114 °C. For `CC1CC(c2cc3cccc(F)c3s2)CCN1` (configuration not stated) the value was 45 to 47 °C; for `COC(=O)CCc1cc2nc(Cl)ccc2n1S(=O)(=O)c1ccc2ncsc2c1`, 146 °C. For `FC(F)(F)c1[nH]c(-c2cccc(Cl)c2)nc1Br` the value was 137 to 144 °C; for `CCC1(CCCCCBr)C(=O)Nc2cc(F)ccc21` (configuration not stated), 95 to 96 °C. For `COc1cc2c(cc1Br)C(=CNc1ccc(N3CCN(C)CC3)cc1)C(=O)NC2=O`, the melting point was 274 to 276 °C. For `COc1c(F)c(NCc2ccccc2)c(F)c(OC)c1C(=O)O` the value was 85 to 86 °C.

As usually defined, the melting point is the temperature of the solid-liquid transition.
